In patent US20070049518A1, “Novel method of treatment of inflammatory skin conditions” (priority 2005, published 2007):

Legend:
[1] = test system: protease activity in skin wash samples from patients with acute AD; assay: Zymographic analysis of skin wash samples; type: biochemical, human; conditions: 50 μM; gelatin zymogram gel; 6 samples acute AD
Protocol: A method has been developed to evaluate protease activity in skin washings. Skin washings from patients with acute eczema may be obtained by aspirating 0.5 ml sterile physiological saline over the skin surface using a sterile, disposable plastic Pasteur pipette The skin area (˜1 cm^2) is defined by a sterile open-ended plastic cylinder. Samples were transferred to 0.05 ml 0.55 M MOPS buffer pH 7.0, 55 mM calcium chloride and 0.2% Brij 35, mixed, centrifuged to remove debris and frozen at −70° C. pending analysis.
Zymographic analysis of the protease content of the samples may be done by mixing with 0.2 volume 0.2M Tris-HCl pH 6.8 containing 37.5% (v/v) glycerol and 2.5% sodium dodecylsulphate followed by electrophoresis through a gelatin zymogram gel (Invitrogen Corporation) according to the manufacturer's instructions. Gels were washed in 2.5% (w/v) Triton X-100 in 25 mM MOPS buffer pH 7 with or without compound 11 (50 μM) and developed overnight at 37° C. in 0.1M MOPS buffer pH 7 containing 5 mM calcium chloride with or without compound 11 (50 μM). Zones of clearing due to proteolytic activity may be identified by staining with Coomassie Brilliant Blue R followed by destaining in 40% (v/v) methanol/10% (v/v) acetic acid. […]

[2] = test system: Cysteine protease in S. aureus 8325-4 culture supernatant; assay: Cysteine protease activity in supernatant of S. aureus grown with compound; type: cell-based, Staphylococcus aureus
Protocol: (§1) Duplicate samples of brain heart infusion medium (5 ml; Becton Dickinson and Co.) containing 10% skimmed milk and 2% (v/v) DMSO vehicle±Compound 12 were inoculated with S. aureus 8325-4 (approximately 10^7 cells in tryptic soy broth) and incubated for 16 h at 37° C./220 rpm. Cultures were centrifuged to remove bacteria and the culture supernatants stored at −70° C. pending analysis of protease activity.
(§2) Enzyme activities were measured in mixtures containing 90 mM MOPS (sodium) buffer pH 7.0 (0.1 ml), 0.045% Brij 35, 2% (v/v) DMSO vehicle±Compound 12 and culture supernatant (4 μl). The concentration of compound used was the same as that which had been used to culture the assayed sample. Further additions to the reaction mixtures were as follows. Aureolysin assay: 4.5 mM calcium chloride, 9 μM E-64 (to inhibit cysteine protease activity) and 10 μM Mca-Pro-Leu-Gly-Leu-Dap(Dnp)-Ala-Arg-amide (Bachem); V8 protease assay: 10 μM Mca-Leu-Glu-Val-Asp-Gly-Trp-Lys(Dnp)-amide (Bachem); cysteine protease assay: 1.8 mM cysteine-HCl (pH-adjusted with NaOH), 9 mM EDTA and 0.1 mM Z-Phe-Arg-AMC hydrochloride (Bachem). The rate of product formation at 37° C. was monitored over 6 h taking readings at 15 min intervals using a POLARstar OPTIMA plate reader (BMG LABTECH Ltd) with 320 nm excitation/405 nm emission for aureolysin and V8 assays and 390 nm excitation/460 nm emission for the cysteine protease assay. Enzyme activities were determined from the linear rate of fluorescence increase and converted to percent inhibition by reference to vehicle control samples.

[3] = test system: Aureolysin in S. aureus 8325-4 culture supernatant; assay: Aureolysin activity in supernatant of S. aureus grown with compound; type: cell-based, Staphylococcus aureus
Protocol: as §1, §2

[4] = Solubility in water; type: physicochemical; conditions: particularly when the solid is in amorphous form
[5] = molecular target: T1, recombinant human ACE (Homo sapiens, UniProt P12821); assay: Selectivity profile, ACE; type: biochemical; conditions: read-out: inhibition at 0.1 mM, ACE
T1 construct: purchased R&D Systems Inc
T1 sequence (P12821 30-1306): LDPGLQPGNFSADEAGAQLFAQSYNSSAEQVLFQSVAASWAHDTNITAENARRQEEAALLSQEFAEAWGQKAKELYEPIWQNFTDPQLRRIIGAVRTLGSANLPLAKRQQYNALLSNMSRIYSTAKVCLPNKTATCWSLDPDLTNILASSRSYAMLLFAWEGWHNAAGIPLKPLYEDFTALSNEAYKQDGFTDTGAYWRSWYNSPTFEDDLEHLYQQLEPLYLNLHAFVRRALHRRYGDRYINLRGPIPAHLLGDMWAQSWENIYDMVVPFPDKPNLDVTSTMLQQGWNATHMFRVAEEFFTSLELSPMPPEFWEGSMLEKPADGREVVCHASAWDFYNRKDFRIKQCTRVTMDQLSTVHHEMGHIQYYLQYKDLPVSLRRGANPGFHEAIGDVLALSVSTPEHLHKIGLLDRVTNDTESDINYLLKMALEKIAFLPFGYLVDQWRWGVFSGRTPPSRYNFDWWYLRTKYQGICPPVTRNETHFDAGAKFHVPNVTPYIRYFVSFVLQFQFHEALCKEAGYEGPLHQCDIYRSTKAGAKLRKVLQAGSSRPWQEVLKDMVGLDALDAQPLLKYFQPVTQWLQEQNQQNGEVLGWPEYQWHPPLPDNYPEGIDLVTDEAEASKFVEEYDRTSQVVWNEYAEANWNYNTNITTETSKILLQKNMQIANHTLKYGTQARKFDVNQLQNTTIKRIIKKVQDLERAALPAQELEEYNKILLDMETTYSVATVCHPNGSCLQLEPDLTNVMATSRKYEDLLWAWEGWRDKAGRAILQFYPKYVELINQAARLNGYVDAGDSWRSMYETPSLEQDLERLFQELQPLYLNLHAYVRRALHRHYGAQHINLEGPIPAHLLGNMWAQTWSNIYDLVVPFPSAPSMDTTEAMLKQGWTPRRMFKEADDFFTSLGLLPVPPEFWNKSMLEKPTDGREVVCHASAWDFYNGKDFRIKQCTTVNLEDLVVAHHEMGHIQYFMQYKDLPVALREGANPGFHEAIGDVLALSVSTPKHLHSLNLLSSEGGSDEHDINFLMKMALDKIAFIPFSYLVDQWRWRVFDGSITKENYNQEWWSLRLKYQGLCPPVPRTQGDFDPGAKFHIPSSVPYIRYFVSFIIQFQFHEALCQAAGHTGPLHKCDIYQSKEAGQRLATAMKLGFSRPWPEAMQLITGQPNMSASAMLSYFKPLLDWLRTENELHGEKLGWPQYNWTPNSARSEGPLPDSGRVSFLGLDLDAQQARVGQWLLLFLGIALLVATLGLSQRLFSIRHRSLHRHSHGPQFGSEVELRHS
Protocol: Inhibitory activity was tested in reaction mixtures (0.1 ml) containing 2% (v/v) DMSO vehicle±compound plus additions as follows. V8 protease: 90 mM MOPS (sodium) buffer pH 7.0, […] calcium chloride, 0.045% Brij 35, 10 μM Mca-Leu-Glu-Val-Asp-Gly-Trp-Lys(Dnp)-amide (Bachem) and V8 (BioCentrum Ltd; 30 ng). Staphopain A and B: 90 mM MOPS (sodium) buffer pH 7.0, 1.8 mM cysteine-HCl (pH-adjusted with NaOH), 0.045% Brij 35, 0.1 mM Z-Phe-Arg-AMC hydrochloride (Bachem) and staphopain A or B (BioCentrum Ltd; 30 ng). Human kallikrein 5: 0.1M sodium phosphate buffer pH 8.0, 0.045% Brij 35, 0.1 mM Boc-Val-Pro-Arg-AMC (Sigma) and recombinant human kallikrein 5 (R&D Systems Inc; 6 ng). Human kallikrein 7: 72 mM Tris-HCl pH 8.0, 0.033% Brij 35, 1.2 mM S-2586 (Chromogenix Instrumentation Laboratory SpA) and recombinant human kallikrein 7 (R&D Systems Inc; 0.6 μg) that had been thermolysin-activated according to the manufacturer's instructions. Human angiotensin-converting enzyme (ACE): 45 mM MES (sodium) buffer pH 6.5, 0.045% Brij 35, 10 μM Mca-[…]Dnp)-OH(R&D Systems Inc) and recombinant human ACE (R&D Systems Inc; 1.3 ng). Human cathepsin D: 0.1M sodium acetate buffer pH 3.5, 0.2M sodium chloride, 0.045% Brij 35, 10 μM Mca-Pro-Leu-Gly-Leu-Dap(Dnp)-Ala-Arg-amide (Bachem) and recombinant human cathepsin D (R&D Systems Inc; 8 ng) activated according to the manufacturer's instructions. […]

[6] = test system: V8 protease in S. aureus 8325-4 culture supernatant; assay: V8 protease activity in supernatant of S. aureus grown with compound; type: cell-based, Staphylococcus aureus
Protocol: as §1, §2

[7] = Compound 12 40 μM in culture and assay
[8] = Compound 12 79 μM in culture and assay
[9] = Compound 12 159 μM in culture and assay
[10] = Compound 12 317 μM in culture and assay

| SMILES | inhibition of protease activity in skin wash samples, zymography (in words) [1] | Inhibition (%) Cysteine protease [2, 7] | Inhibition (%) Cysteine protease [2, 8] | Inhibition (%) Cysteine protease [2, 9] | Inhibition (%) Cysteine protease [2, 10] | Inhibition (%) Aureolysin [3, 7] | Inhibition (%) Aureolysin [3, 8] | Inhibition (%) Aureolysin [3, 9] | Inhibition (%) Aureolysin [3, 10] | solubility in water (in words) [4] | inhibition at 100 µM [5] | Inhibition (%) V8 protease [6, 7] | Inhibition (%) V8 protease [6, 8] | Inhibition (%) V8 protease [6, 9] | Inhibition (%) V8 protease [6, 10] |
| --- | --- | --- | --- | --- | --- | --- | --- | --- | --- | --- | --- | --- | --- | --- | --- |
| CNC(=O)[C@@H](NC(=O)[C@@H](CC(=O)NO)CC(C)C)C(C)(C)C [Compound 11, (R)—N1-((S)-3,3-dimethyl-1-(methylamino)-1-oxobutan-2-yl)-N4-hydroxy-2-isobutylsuccinamide] | significant inhibition of protease activity | – | – | – | – | – | – | – | – | – | – | – | – | – | – |
| CNC(=O)[C@@H](NC(=O)[C@H](CC(=O)NO)CC(C)C)C(C)(C)C [Compound 12, (S)—N1-((S)-3,3-dimethyl-1-(methylamino)-1-oxobutan-2-yl)-N4-hydroxy-2-isobutylsuccinamide] | – | 27% | 53% | 78% | 87% | 89% | 94% | 98% | 99% | particularly soluble in water | 0% | 83% | 91% | 97% | 99% |
